Assays:
Format in all cases: biochemical
Conditions in all cases: fluorogenic substrate, pH 7.5
[1] = molecular target: T1, catalytic domain of human collagenase-1 (MMP-1) (Homo sapiens, UniProt P03956); assay: enzymatic activity of the catalytic domain of human collagenase-1 (MMP-1)
T1 construct: Determining the enzymatic activity of the catalytic domain of human collagenase-1 (MMP-1); purchased Biocol, Potsdam MMP1
T1 sequence (P03956 100-269 limits assumed): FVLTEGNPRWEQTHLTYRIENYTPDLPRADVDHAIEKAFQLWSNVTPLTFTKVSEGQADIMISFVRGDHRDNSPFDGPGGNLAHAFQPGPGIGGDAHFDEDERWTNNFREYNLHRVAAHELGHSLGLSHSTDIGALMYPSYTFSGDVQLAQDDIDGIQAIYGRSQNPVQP
Experimental: Determining the enzymatic activity of the catalytic domain of human collagenase-1 (MMP-1).
(§1) Activation of the Proenzyme:
2 parts by volume of proenzyme are incubated, at 37° C. for 1 hour, with 1 part by volume of APMA solution. The APMA solution is prepared from a 10 mmol/l solution of p-aminophenylmercuric acetate in 0.1 mmol/l NaOH by diluting with 3 parts by volume of Tris/HCl buffer pH 7.5 (see below). The pH is adjusted to between 7.0 and 7.5 by adding 1 mmol/l HCl. After the enzyme has been activated, it is diluted with the Tris/HCl buffer down to a concentration of 2.5 μg/ml. In order to measure the enzyme activity, 10 μl of enzyme solution are incubated, for 15 minutes, with 10 μl of a 3% (v/v) buffered solution of dimethyl sulfoxide (reaction 1). […]
Both in the case of reaction 1 and in the case of reaction 2, the enzyme reaction is monitored by fluorescence spectroscopy (328 nm (extinction)/393 nm (emission)) after 10 μl of a 3% (v/v) aqueous solution of dimethyl sulfoxide which contains 0.3 mmol of the substrate/l has been added. The enzyme activity is expressed as increase in extinction/minute. The inhibitor effect is calculated as percentage inhibition in accordance with the following formula: % inhibition=100−[(increase in extinction/minute in reaction 2)/(increase in extinction/minute in reaction 1)×100]. […]

[2] = molecular target: T2, catalytic domain of human gelatinase-A (MMP-2) (Homo sapiens, UniProt P08253); assay: enzymatic activity of the catalytic domain of human gelatinase-A (MMP-2)
T2 construct: Determining the enzymatic activity of the catalytic domain of human gelatinase-A (MMP-2); purchased INVITEK, Berlin 30 100 602
T2 sequence (P08253 110-465 limits assumed): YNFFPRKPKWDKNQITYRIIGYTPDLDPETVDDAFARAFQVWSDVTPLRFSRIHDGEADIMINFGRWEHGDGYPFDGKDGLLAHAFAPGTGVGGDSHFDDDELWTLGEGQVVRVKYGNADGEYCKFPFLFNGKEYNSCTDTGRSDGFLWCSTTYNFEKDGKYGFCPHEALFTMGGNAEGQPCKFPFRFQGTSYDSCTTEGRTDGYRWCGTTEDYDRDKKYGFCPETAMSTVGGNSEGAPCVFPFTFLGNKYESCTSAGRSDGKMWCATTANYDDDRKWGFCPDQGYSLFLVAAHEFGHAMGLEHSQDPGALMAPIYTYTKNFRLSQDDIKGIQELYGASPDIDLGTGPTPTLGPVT
Experimental: Determining the enzymatic activity of the catalytic domain of human gelatinase-A (MMP-2).
as §1
2 parts by volume of proenzyme were incubated, at 37° C. for 0.5 hour, with 1 part by volume of APMA solution. The APMA solution was prepared from a 10 mmol/l p-aminophenylmercuric acetate solution in 0.1 mmol/l NaOH by diluting with 3 parts by volume of Tris/HCl buffer pH 7.5 (see below). The pH was adjusted to between 7.0 and 7.5 by adding 1 mmol HCl/l. After the enzyme had been activated, it was diluted with the Tris/HCl buffer down to a concentration of 0.83 μg/ml. In order to measure the enzyme activity, 10 μl of enzyme solution were incubated, for 15 minutes, with 10 μl of a 3% (v/v) buffered solution of dimethyl sulfoxide (reaction 1). […]
Both in the case of reaction 1 and in the case of reaction 2, the enzyme reaction was monitored by fluorescence spectroscopy (328 nm (extinction)/393 nm (emission)) after 10 μl of a 3% (v/v) aqueous solution of dimethyl sulfoxide containing 0.3 mmol of the substrate/l had been added.
(§2) The enzyme activity was expressed as increase in extinction/minute.
(§3) The inhibitor effect was calculated as a percentage inhibition in accordance with the following formula: % inhibition=100−[(increase in extinction/minute in reaction 2)/(increase in extinction/minute in reaction 1)×100]. […]

[3] = molecular target: T3, catalytic domain of human stromelysin (MMP-3) (Homo sapiens, UniProt P08254); assay: enzymatic activity of the catalytic domain of human stromelysin (MMP-3)
T3 construct: catalytic domains of human stromelysin (MMP-3) and neutrophil collagenase (MMP-8); made in house
T3 sequence (P08254 100-272 limits assumed): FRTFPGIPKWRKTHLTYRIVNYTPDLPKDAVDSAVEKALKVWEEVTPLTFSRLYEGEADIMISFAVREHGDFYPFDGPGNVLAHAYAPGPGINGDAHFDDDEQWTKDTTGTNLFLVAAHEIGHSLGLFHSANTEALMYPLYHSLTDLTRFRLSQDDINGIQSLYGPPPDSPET
Experimental: (§4) Preparation, and determination of the enzymatic activity, of the catalytic domains of human stromelysin (MMP-3) and neutrophil collagenase (MMP-8).
(§5) The two enzymes, i.e. stromelysin (MMP-3) and neutrophil collagenase (MMP-8), were prepared in accordance with Ye et al. (Biochemistry; 31 (1992) pages 11231-11235). In order to measure the enzyme activity, or the enzyme inhibitor effect, 10 μl of enzyme solution were incubated, for 15 minutes, with 10 μl of a 3% (v/v) buffered solution of dimethyl sulfoxide which contained the enzyme inhibitor, where appropriate. After 10 μl of a 3% (v/v) aqueous solution of dimethyl sulfoxide containing 1 mmol of the substrate/l had been added, the enzyme reaction was monitored by fluorescence spectroscopy (328 nm (ex)/393 nm (em)).
(§6) The enzyme activity is expressed as increase in extinction/minute. The IC50 values listed in table 2 were determined as being those inhibitor concentrations which in each case led to a 50% inhibition of the enzyme.
(§7) The buffer solution contained 0.05% Brij (Sigma, Deisenhofen, Germany) and also 0.1 mol of Tris/HCl/l, 0.1 mol of NaCl/l, 0.01 mol of CaCl2/l and 0.1 mol of piperazine-N,N′-bis[2-ethanesulfonic acid]/l (pH=7.5). […]

[4] = molecular target: T4, catalytic domain of human neutrophil collagenase (MMP-8) (Homo sapiens, UniProt P22894); assay: enzymatic activity of the catalytic domain of human neutrophil collagenase (MMP-8)
T4 construct: catalytic domains of human stromelysin (MMP-3) and neutrophil collagenase (MMP-8); made in house
T4 sequence (P22894 100-262 limits assumed): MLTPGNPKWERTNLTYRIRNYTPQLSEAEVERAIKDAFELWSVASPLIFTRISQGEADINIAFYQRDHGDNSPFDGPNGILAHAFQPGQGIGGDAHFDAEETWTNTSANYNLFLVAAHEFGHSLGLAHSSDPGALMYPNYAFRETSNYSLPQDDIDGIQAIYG
Experimental: as §4, §5, §6, §7

[5] = molecular target: T5, catalytic domain of human gelatinase-B (MMP-9) (Homo sapiens, UniProt P14780); assay: enzymatic activity of the catalytic domain of human gelatinase-B (MMP-9)
T5 construct: Determining the enzymatic activity of the catalytic domain of human gelatinase-B (MMP-9); purchased Roche, Mannheim 1 758 896
T5 sequence (P14780 107-444 limits assumed): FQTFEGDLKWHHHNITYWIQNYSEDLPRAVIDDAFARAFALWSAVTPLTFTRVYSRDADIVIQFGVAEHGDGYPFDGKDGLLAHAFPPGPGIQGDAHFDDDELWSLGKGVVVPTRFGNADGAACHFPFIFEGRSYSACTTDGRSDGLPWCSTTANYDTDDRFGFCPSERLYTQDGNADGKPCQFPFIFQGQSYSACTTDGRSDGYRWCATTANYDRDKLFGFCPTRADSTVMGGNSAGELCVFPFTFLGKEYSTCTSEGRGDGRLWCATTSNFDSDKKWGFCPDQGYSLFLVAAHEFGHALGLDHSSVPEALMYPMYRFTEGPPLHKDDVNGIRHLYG
Experimental: Determining the enzymatic activity of the catalytic domain of human gelatinase-B (MMP-9).
as §1
2parts by volume of proenzyme were incubated, at 37° C. for 4 hours, with 1 part by volume of APMA solution. The APMA solution was prepared from a 10 mmol/l p-aminophenylmercuric acetate solution in 0.1 mmol/l NaOH by diluting with 3 parts by volume of Tris/HCl buffer, pH 7.5 (see below). The pH was adjusted to between 7.0 and 7.5 by adding 1 mmol/l HCl. After the enzyme had been activated, it was diluted with the Tris/HCl buffer down to a concentration of 4.2 mU/ml.
(§8) In order to measure the enzyme activity, 10 μl of enzyme solution were incubated, for 15 minutes, with 10 μl of a 3% (v/v) buffered solution of dimethyl sulfoxide (reaction 1). […]
Both in the case of reaction 1 and in the case of reaction 2, the enzyme reaction was monitored by fluorescence spectroscopy (328 nm (extinction)/393 nm (emission)) after 10 μl of a 3% (v/v) aqueous solution of dimethyl sulfoxide containing 0.15 mmol of the substrate/l had been added.
as §2, §3

[6] = molecular target: T6, catalytic domain of human collagenase-3 (MMP-13) (Homo sapiens, UniProt P45452); assay: enzymatic activity of the catalytic domain of human collagenase-3 (MMP-13)
T6 construct: Determining the enzymatic activity of the catalytic domain of human collagenase-3 (MMP-13); purchased INVITEK, Berlin 30 100 803
Experimental: Determining the enzymatic activity of the catalytic domain of human collagenase-3 (MMP-13).
as §1
2 parts by volume of proenzyme were incubated, at 37° C. for 1.5 hours, with 1 part by volume of APMA solution. The APMA solution was prepared from a 10 mmol/l solution of p-aminophenylmercuric acetate in 0.1 mmol/l NaOH by diluting with 3 parts by volume of Tris/HCl buffer pH 7.5 (see below). The pH was adjusted to between 7.0 and 7.5 by adding 1 mmol/l HCl. After the enzyme had been activated, it was diluted with the Tris/HCl buffer down to a concentration of 1.67 μg/ml.
as §8
Both in the case of reaction 1 and in the case of reaction 2, the enzyme reaction was monitored by fluorescence spectroscopy (328 nm (extinction)/393 nm (emission)) after 10 μl of a 3% (v/v) aqueous solution of dimethyl sulfoxide containing 0.075 mmol of the substrate/l had been added. […]
as §3

IC50 [1]: 700 nM
IC50 [2]: 2.5 nM
IC50 [3]: 70 nM
IC50 [4]: 13 nM
IC50 [5]: 3.5 nM
IC50 [6]: 6.3 nM
Structure (SMILES): O=C(NO)C1c2c(sc3ccccc23)C(O)CN1S(=O)(=O)c1ccc(-c2ccc(Cl)cc2)cc1 (stereo not drawn) [Example 1, 2-(4′-Chlorobiphenyl-4-sulfonyl)-4-hydroxy-1,2,3,4-tetrahydrobenzo[4,5]thieno[3,2-c]pyridine-1-carboxylic acid hydroxyamide]
